Source: ChEMBL document CHEMBL3758078, “Modification of the anabaseine pyridine nucleus allows achieving binding and functional selectivity for the α3β4 nicotinic acetylcholine receptor subtype” (Eur J Med Chem, 2016)
pEC50, pKi: −log10 of the molar value. The source made the active and inactive calls. The calls are words filed in the database; no cut-off is given here.

What was measured:
[1] = target: T1, Neuronal acetylcholine receptor; alpha3/beta4 (Homo sapiens, UniProt P30926+P32297); test: Displacement of [3H]-epibatidine from human alpha3beta4 nACh receptor expressed in HEK293 cells preincubated for 5 mins followed by radioligand addition by beta counting analysis; format: cell-based
Homo sapiens [2] = species: Homo sapiens; test: Selectivity ratio of Ki for rat alpha4beta2 nACh receptor to Ki for human alpha3beta4 nACh receptor
[3] = target: T1, Neuronal acetylcholine receptor; alpha3/beta4; test: Agonist activity at human alpha3beta4 nACh receptor expressed in rat GH4C1 cells assessed as increase in current amplitudes after 2 to 3 days by patch clamp assay; format: cell-based, GH4-C1
Homo sapiens [4] = species: Homo sapiens; test: Selectivity ratio of Ki for rat alpha7 nACh receptor to Ki for human alpha3beta4 nACh receptor
[5] = target: Neuronal acetylcholine receptor subunit alpha-7 (Rattus norvegicus, UniProt Q05941); test: Displacement of [125I] alpha bungarotoxin from rat alpha7 nACh receptor expressed in rat hippocampal membrane preincubated for 30 mins followed by radioligand addition by gamma counting analysis; format: cell membranes, Hippocampus
[6] = target: Neuronal acetylcholine receptor; alpha4/beta2 (Rattus norvegicus, UniProt P09483+P12390); test: Displacement of [3H]-epibatidine from rat alpha4beta2 nACh receptor expressed in rat cortical membrane preincubated for 30 mins followed by radioligand addition by […] analysis; format: cell membranes
[7] = target: T2, Neuronal acetylcholine receptor subunit alpha-7 (Homo sapiens, UniProt P36544); test: Agonist activity at human alpha7 nACh receptor expressed in rat GH4C1 cells assessed as increase in current amplitudes after 2 to 3 days by patch clamp assay; format: cell-based, GH4-C1
[8] = target: T1, Neuronal acetylcholine receptor; alpha3/beta4; test: Antagonist activity at human alpha3beta4 nACh receptor; format: protein-complex assay
[9] = target: T3, Neuronal acetylcholine receptor; alpha4/beta2 (Homo sapiens) (UniProt P17787+P43681); test: Antagonist activity at human alpha4beta2 nACh receptor; format: protein-complex assay
[10] = target: T1, Neuronal acetylcholine receptor; alpha3/beta4; test: Agonist activity at human alpha3beta4 nACh receptor expressed in rat […] cells assessed as increase in current amplitudes at 0.1 to 100 uM after 2 to 3 days by patch clamp assay relative to acetylcholine; format: cell-based
[11] = target: T2, Neuronal acetylcholine receptor subunit alpha-7; test: Agonist activity at human alpha7 nACh receptor expressed in rat GH4C1 cells assessed as increase in current amplitudes at 0.1 to 100 uM after 2 to 3 days by patch clamp assay; format: cell-based; conditions: GH4-C1
[12] = target: T3, Neuronal acetylcholine receptor; alpha4/beta2 (Homo sapiens); test: Agonist activity at human alpha4beta2 nACh receptor expressed in rat […] cells assessed as increase in current amplitudes at 0.1 to 100 uM after 2 to 3 days by patch clamp assay; format: cell-based

Sequence of Neuronal acetylcholine receptor subunit alpha-7 (Rattus norvegicus, UniProt Q05941) (Q05941 whole entry): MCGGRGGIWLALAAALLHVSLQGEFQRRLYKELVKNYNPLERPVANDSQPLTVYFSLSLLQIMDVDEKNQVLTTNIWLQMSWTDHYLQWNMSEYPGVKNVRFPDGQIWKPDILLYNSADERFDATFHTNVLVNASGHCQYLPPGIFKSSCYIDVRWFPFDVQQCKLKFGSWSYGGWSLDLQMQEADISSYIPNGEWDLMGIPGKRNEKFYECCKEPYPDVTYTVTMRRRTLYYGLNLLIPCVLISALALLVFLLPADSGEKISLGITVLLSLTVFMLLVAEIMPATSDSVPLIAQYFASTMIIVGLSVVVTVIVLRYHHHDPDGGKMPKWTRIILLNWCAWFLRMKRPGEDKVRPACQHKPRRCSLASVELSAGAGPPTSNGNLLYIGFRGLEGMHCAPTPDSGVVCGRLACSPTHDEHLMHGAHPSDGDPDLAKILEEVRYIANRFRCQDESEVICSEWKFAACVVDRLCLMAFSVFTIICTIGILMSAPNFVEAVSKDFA
T1 sequence (P30926 whole entry): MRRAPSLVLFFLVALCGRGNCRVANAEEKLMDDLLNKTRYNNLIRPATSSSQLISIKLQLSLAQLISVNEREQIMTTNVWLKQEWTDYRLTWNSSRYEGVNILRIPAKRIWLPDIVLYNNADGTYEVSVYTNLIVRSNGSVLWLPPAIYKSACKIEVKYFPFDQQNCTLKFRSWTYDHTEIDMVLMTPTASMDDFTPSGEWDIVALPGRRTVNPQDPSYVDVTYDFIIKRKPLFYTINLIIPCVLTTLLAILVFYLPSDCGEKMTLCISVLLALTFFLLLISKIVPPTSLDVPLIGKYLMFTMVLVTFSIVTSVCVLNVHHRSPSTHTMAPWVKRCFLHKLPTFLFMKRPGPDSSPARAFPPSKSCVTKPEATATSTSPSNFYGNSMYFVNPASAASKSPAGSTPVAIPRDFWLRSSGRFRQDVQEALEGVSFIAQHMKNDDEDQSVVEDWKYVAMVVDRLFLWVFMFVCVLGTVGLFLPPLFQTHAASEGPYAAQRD
T1 sequence (P32297 whole entry): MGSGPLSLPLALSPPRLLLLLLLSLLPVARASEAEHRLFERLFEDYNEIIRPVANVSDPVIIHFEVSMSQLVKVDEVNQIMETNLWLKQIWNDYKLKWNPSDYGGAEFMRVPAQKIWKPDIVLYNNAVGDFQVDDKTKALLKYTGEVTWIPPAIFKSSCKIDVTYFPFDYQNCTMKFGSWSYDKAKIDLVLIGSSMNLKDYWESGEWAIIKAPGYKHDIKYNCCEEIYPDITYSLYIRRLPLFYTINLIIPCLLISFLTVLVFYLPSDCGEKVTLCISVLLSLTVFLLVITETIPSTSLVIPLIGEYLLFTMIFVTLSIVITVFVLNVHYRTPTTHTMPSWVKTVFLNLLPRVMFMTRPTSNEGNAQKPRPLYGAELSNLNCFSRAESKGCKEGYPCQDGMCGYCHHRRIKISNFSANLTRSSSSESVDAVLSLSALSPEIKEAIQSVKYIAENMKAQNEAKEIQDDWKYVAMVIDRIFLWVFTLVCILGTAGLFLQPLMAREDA
Sequence of Neuronal acetylcholine receptor; alpha4/beta2 (P09483 whole entry): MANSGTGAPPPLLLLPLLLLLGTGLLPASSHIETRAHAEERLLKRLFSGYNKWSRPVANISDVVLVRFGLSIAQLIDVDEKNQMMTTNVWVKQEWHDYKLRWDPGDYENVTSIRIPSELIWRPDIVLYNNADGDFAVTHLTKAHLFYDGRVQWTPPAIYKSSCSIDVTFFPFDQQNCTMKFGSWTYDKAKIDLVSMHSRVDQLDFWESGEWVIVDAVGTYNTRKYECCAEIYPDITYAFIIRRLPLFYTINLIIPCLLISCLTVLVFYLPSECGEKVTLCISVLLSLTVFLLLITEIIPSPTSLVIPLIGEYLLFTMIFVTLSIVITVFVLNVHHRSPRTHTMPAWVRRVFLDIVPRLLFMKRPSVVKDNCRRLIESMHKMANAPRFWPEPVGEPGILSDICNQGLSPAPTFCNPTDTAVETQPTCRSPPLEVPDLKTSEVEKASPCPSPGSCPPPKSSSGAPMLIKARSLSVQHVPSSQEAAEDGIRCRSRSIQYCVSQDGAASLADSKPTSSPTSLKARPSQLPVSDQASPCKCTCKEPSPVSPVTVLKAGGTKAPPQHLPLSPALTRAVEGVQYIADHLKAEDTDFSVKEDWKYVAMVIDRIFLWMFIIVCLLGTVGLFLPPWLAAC
Sequence of Neuronal acetylcholine receptor; alpha4/beta2 (P12390 whole entry): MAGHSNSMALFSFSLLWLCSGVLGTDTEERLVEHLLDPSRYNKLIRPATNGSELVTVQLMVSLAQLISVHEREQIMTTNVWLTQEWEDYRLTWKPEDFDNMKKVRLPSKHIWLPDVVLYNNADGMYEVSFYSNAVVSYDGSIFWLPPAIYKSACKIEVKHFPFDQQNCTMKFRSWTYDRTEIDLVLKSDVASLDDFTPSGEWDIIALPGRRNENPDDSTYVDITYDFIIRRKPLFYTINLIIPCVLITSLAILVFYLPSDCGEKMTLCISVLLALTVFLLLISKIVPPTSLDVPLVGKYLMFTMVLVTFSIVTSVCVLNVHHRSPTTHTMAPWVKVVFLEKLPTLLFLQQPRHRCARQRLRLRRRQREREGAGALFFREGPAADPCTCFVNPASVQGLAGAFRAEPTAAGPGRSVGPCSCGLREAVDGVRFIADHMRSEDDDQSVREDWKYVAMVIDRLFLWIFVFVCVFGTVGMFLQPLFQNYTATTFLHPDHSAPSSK
T2 sequence (P36544 whole entry): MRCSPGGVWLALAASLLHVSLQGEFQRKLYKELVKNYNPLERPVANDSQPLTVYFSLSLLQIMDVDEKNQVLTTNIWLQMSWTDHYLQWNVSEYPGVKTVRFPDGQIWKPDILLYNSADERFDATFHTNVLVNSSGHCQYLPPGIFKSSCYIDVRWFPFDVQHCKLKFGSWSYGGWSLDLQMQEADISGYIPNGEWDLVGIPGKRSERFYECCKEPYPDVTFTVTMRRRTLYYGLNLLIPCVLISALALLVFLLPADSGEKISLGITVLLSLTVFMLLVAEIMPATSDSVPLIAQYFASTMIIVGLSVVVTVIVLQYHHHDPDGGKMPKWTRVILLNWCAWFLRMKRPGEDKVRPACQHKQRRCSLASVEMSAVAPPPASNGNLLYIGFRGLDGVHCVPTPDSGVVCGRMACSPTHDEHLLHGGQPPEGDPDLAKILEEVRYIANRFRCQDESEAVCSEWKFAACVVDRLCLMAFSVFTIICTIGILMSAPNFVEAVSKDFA

Row | Compound | pKi [1] | Ratio Ki (Homo sapiens [2]) | pEC50 [3] | Ratio Ki (Homo sapiens [4]) | pKi [5] | pKi [6] | pEC50 [7] | inhibition [8] | inhibition [9] | Emax [10] | Activity [11] | Activity [12]
1 | OCc1cccc(C2=NCCCC2)c1 | 7.10 | 438 | 4.70 | 2 | 6.80 | 4.46 | 4.22 |  |  |  |  | 
2 | Brc1cc(Br)cc(C2=NCCCC2)c1 | 7.15 | 266 |  | 4.8 | 6.46 | 4.73 |  | inactive | inactive |  |  | 
3 | c1ccc(C2=NCCCC2)cc1 | 6.71 | 11 |  | 12 | 5.62 | 5.68 |  |  |  |  |  | 
4 | Ic1cccc(C2=NCCCC2)c1 | 8.33 | 806 |  | 2.4 | 7.95 | 5.42 |  | inactive | inactive | 60% | inactive | inactive
5 | Fc1cc(Br)cc(C2=NCCCC2)c1 | 7.32 | 37 |  | 4.3 | 6.69 | 5.75 |  |  |  |  |  | 
6 | Cc1cccc(C2=NCCCC2)c1 | 6.81 | 9.4 |  | 2.5 | 6.42 | 5.84 |  |  |  |  |  | 
7 | Oc1cccc(C2=NCCCC2)c1 | 6.17 | 47 |  | 14 | 5.03 | 4.49 |  |  |  |  |  | 
8 | Clc1cccc(C2=NCCCC2)c1 | 7.11 | 149 |  | 5.1 | 6.40 | 4.94 |  |  |  |  |  | 
9 | c1cncc(C2=NCCCC2)c1 [ANABASEINE] | 6.97 | 0.6 |  | 0.3 | 7.49 | 7.17 |  |  |  |  |  | 
10 | OCc1cc(F)cc(C2=NCCCC2)c1 | 7.10 | 9.3 |  | 10 | 6.09 | 6.13 |  |  |  |  |  | 
11 | Fc1cccc(C2=NCCCC2)c1 | 6.97 | 19 |  | 22 | 5.63 | 5.69 |  |  |  |  |  | 
12 | Oc1cccc([C@H]2C[C@@H]3CC[C@H]2N3)c1 (racemic) | 7.10 | 1.6 |  | 7.6 | 6.22 | 6.90 |  |  |  |  |  | 
13 | Brc1cccc(C2=NCCCC2)c1 | 7.53 | 168 |  | 1.5 | 7.36 | 5.30 |  |  |  |  |  | 
14 | OCc1cccc([C@H]2C[C@@H]3CC[C@H]2N3)c1 (racemic) | 7.04 | 4.7 |  | 20 | 5.74 | 6.37 |  |  |  |  |  | 
